Legend:
[1] = tested on: histamine-induced vascular permeability in guinea pig conjunctiva; assay: histamine-induced vascular permeability in guinea pig conjunctiva, topical ocular pretreatment; format: in vivo, guinea pig (Male Dunkin Hartley)
Description: The topical ocular antihistaminic effect of emedastine difumarate was assessed in a model of histamine induced vascular permeability in guinea pig conjunctiva. The potency of emedastine difumarate in this model was then compared with those of reference antihistamines.
Male Dunkin Hartley Viral Antibody Free outbred guinea pigs (Charles River Labs, Portage, Mich.), weighing approximately 250-350 grams (6/group) were injected intravenously (i.v.) via the marginal ear vein with 1.0 mL of Evans Blue dye (1.0 mg/mL). Forty-five (45) minutes post dye injection, 20 μL of test compound or saline vehicle was applied topically to one eye of each experimental animal. […] Responses were quantitated as described by Yanni et al. in Int. Arch. Allergy Immunol., 101:102-106 (1993). Response scores from the treated groups were then compared with scores obtained in the saline-treated group using Dunnett's t test (Dunnett C. W., "A multiple comparison procedure for comparing treatments with a control." J. Am. Stat. Assoc. 50:1096-1121(1955)). Regression analysis was used to determine relative potency (Bliss, C. and E. Gjorgy. In Vitamin Methods, Vol. 2, pp. 445-610, Academic Press, Inc., New York, 1951.).

[2] = as compared to systemic activity; cited from earlier work
[3] = tested on: allergic conjunctivitis; conditions: without the addition of a vasoconstrictor; cited from earlier work
[4] = 30 min pretreatment, relative to emedastine difumarate = 1.0, (95% Confidence limits)
[5] = 1 min pretreatment, relative to emedastine difumarate = 1.0, (95% Confidence Limits)
[6] = 1 min pretreatment, 0.001 wt %, ketotifen/pheniramine experiment (NaCl 276 ± 10)
[7] = 1 min pretreatment, 0.01 wt %, ketotifen/pheniramine experiment (NaCl 276 ± 10)
[8] = 1 min pretreatment, 0.1 wt %, ketotifen/pheniramine experiment (NaCl 276 ± 10)

Q: For `CN(C)CCC(c1ccc(Br)cc1)c1ccccn1` (stereo not shown) [Brompheniramine, reference compound], which “Wheal Area × Intensity (X ± S.D.)” value ([1]; 30 min pretreatment, 0.0001 wt %, brompheniramine experiment (NaCl 219 ± 20)) is on record?
A: 167 ± 26

Q: And the “Wheal Area × Intensity (X ± S.D.)” value ([1]; 30 min pretreatment, 0.001 wt %, brompheniramine experiment (NaCl 219 ± 20))?
A: 92 ± 44

Q: And the “Wheal Area × Intensity (x ± S.D.)” value ([1]; 30 min pretreatment, 0.01 wt %, brompheniramine experiment (NaCl 219 ± 20))?
A: 5 ± 8

Q: And the Potency [1, 4]?
A: 0.14 (0.078-0.263)

Q: For `CCOC(=O)N1CCC(=C2c3ccc(Cl)cc3CCc3cccnc32)CC1` [loratadine], which local ocular activity [2] is on record?
A: greatly reduced local ocular activity

Q: With `c1ccc(CN(CC2=NCCN2)c2ccccc2)cc1` [Antazoline, reference compound] as the compound, how does the “Wheal Area × Intensity” value ([1]; 1 min pretreatment, 0.0001 wt %, antazoline experiment (NaCl 285 ± 19)) read?
A: 244 ± 14

Q: What about the “Wheal Area × Intensity” value ([1]; 1 min pretreatment, 0.001 wt %, antazoline experiment (NaCl 285 ± 19)) of the same compound?
A: 178 ± 42

Q: And the “Wheal Area × Intensity” value ([1]; 1 min pretreatment, 0.01 wt %, antazoline experiment (NaCl 285 ± 19))?
A: 115 ± 6

Q: And the Potency [1, 5]?
A: 0.060

Q: What about the “Wheal Area × Intensity (x ± S.D.)” value ([1]; 30 min pretreatment, 0.01 wt %, antazoline experiment (NaCl 287 ± 20)) of the same compound?
A: 205 ± 61

Q: And the “Wheal Area × Intensity (x ± S.D.)” value ([1]; 30 min pretreatment, 0.1 wt %, antazoline experiment (NaCl 287 ± 20))?
A: 145 ± 26

Q: What about the “Wheal Area × Intensity (x ± S.D.)” value ([1]; 30 min pretreatment, 1.0 wt %, antazoline experiment (NaCl 287 ± 20)) of the same compound?
A: 91 ± 27

Q: And the Potency [1, 4]?
A: ~0.00017

Q: With `CN(C)CCC(c1ccc(Cl)cc1)c1ccccn1` (stereo not shown) [Chlorpheniramine, reference compound] as the compound, how does the “Wheal Area × Intensity (X ± S.D.)” value ([1]; 30 min pretreatment, 0.0001 wt %, chlorpheniramine experiment (NaCl 217 ± 35)) read?
A: 161 ± 57

Q: And the “Wheal Area × Intensity (X ± S.D.)” value ([1]; 30 min pretreatment, 0.001 wt %, chlorpheniramine experiment (NaCl 217 ± 35))?
A: 76 ± 22

Q: What about the “Wheal Area × Intensity (x ± S.D.)” value ([1]; 30 min pretreatment, 0.01 wt %, chlorpheniramine experiment (NaCl 217 ± 35)) of the same compound?
A: 9 ± 12

Q: What about the Potency [1, 4] of the same compound?
A: 0.13 (0.056-0.295)

Q: For `COc1ccc(CCN2CCC(Nc3nc4ccccc4n3Cc3ccc(F)cc3)CC2)cc1` [astemizole], which local ocular activity [2] is on record?
A: greatly reduced local ocular activity

Q: Which results are given for `CN1CCC[C@@H]1CCO[C@](C)(c1ccccc1)c1ccc(Cl)cc1` [Clemastine, reference compound]?
A: Wheal Area × Intensity (X ± S.D.) ([1]; 30 min pretreatment, 0.00001 wt %, clemastine experiment (NaCl 350 ± 31)): 283 ± 37; Wheal Area × Intensity (X ± S.D.) ([1]; 30 min pretreatment, 0.0001 wt %, clemastine experiment (NaCl 350 ± 31)): 131 ± 36; Wheal Area × Intensity (X ± S.D.) ([1]; 30 min pretreatment, 0.001 wt %, clemastine experiment (NaCl 350 ± 31)): 65 ± 28; Wheal Area × Intensity (x ± S.D.) ([1]; 30 min pretreatment, 0.01 wt %, clemastine experiment (NaCl 350 ± 31)): 18 ± 8

Q: Which results are given for `CN(C)CCC(c1ccccc1)c1ccccn1` (stereo not shown) [Pheniramine, reference compound]?
A: Wheal Area × Intensity [1, 6]: 181 ± 16; Wheal Area × Intensity [1, 7]: 87 ± 40; Wheal Area × Intensity [1, 8]: 59 ± 23; Potency [1, 5]: 0.130; Wheal Area × Intensity (x ± S.D.) ([1]; 30 min pretreatment, 0.003 wt %, levocabastine/pheniramine experiment (NaCl 252 ± 30)): 175 ± 53; Wheal Area × Intensity (x ± S.D.) ([1]; 30 min pretreatment, 0.03 wt %, levocabastine/pheniramine experiment (NaCl 252 ± 30)): 122 ± 33; Potency [1, 4]: ~0.0028

Q: With `CN1CCC(=C2c3ccccc3CC(=O)c3sccc32)CC1` [Ketotifen, reference compound] as the compound, how does the “Wheal Area × Intensity” value ([1]; 1 min pretreatment, 0.0001 wt %, ketotifen/pheniramine experiment (NaCl 276 ± 10)) read?
A: 210 ± 11

Q: What about the “Wheal Area × Intensity” value [1, 6] of the same compound?
A: 138 ± 21

Q: And the “Wheal Area × Intensity” value [1, 7]?
A: 89 ± 22

Q: What about the “Wheal Area × Intensity” value [1, 8] of the same compound?
A: 33 ± 22

Q: And the Potency [1, 5]?
A: 0.288

Q: And the “Wheal Area × Intensity (x ± S.D.)” value ([1]; 30 min pretreatment, 0.0000007 wt %, ketotifen experiment (NaCl 214 ± 41))?
A: 157 ± 66

Q: What about the “Wheal Area × Intensity (x ± S.D.)” value ([1]; 30 min pretreatment, 0.000007 wt %, ketotifen experiment (NaCl 214 ± 41)) of the same compound?
A: 108 ± 52

Q: And the “Wheal Area × Intensity (x ± S.D.)” value ([1]; 30 min pretreatment, 0.00007 wt %, ketotifen experiment (NaCl 214 ± 41))?
A: 61 ± 26

Q: And the Potency ([1]; topical, 0.5 h)?
A: 3.72 (0.973-11.892)

Q: With `C[C@@H]1CN([C@H]2CC[C@](C#N)(c3ccc(F)cc3)CC2)CC[C@]1(C(=O)O)c1ccccc1` [Levocabastine, reference compound] as the compound, how does the “attenuation of histamine-induced vascular permeability response” value ([1]; 0.05%, topically 1 minute before histamine injection) read?
A: failed to attenuate significantly

Q: What about the “Wheal Area × Intensity” value ([1]; 1 min pretreatment, 0.05 wt %, levocabastine experiment (NaCl 336 ± 78)) of the same compound?
A: 231 ± 58

Q: And the “Wheal Area × Intensity (x ± S.D.)” value ([1]; 30 min pretreatment, 0.0005 wt %, levocabastine/pheniramine experiment (NaCl 252 ± 30))?
A: 189 ± 66

Q: And the “Wheal Area × Intensity (x ± S.D.)” value ([1]; 30 min pretreatment, 0.005 wt %, levocabastine/pheniramine experiment (NaCl 252 ± 30))?
A: 116 ± 67

Q: What about the “Wheal Area × Intensity (x ± S.D.)” value ([1]; 30 min pretreatment, 0.05 wt %, levocabastine/pheniramine experiment (NaCl 252 ± 30)) of the same compound?
A: 56 ± 41

Q: And the Potency [1, 4]?
A: 0.01 (0.006-0.038)

Q: What about the “clinical activity in patients with allergic conjunctivitis” value [3] of the same compound?
A: exhibits clinical activity

Q: For `CC(C)(C)c1ccc(C(O)CCCN2CCC(C(O)(c3ccccc3)c3ccccc3)CC2)cc1` (stereo not shown) [terfenadine], which local ocular activity [2] is on record?
A: little or no local ocular activity
